Source: patent US20030228642A1, “Crohn's disease treatment and efficacy prediction methods” (priority 2002, published 2003)

Key:
[1] = system: M. para. isolated from resected tissue of CD patients; test: in vitro test of seven antituberculosis drugs against M. para. (Bactec system); format: cell-based, Mycobacterium paratuberculosis; set-up: key to Status: R, resistant; S, sensitive; conditions: for IC99.9: 99.9% M. para. cells inhibited or killed, Bactec system, combinations given as drug:drug, read-out: MIC99.9; for Status: M. para. resistant or sensitive to the drug
[2] = system: Crohn's disease; test: comparison of age-matched MAP-positive and MAP-negative patients at 1 year (CDAI); format: in vivo, human; conditions: patients unresponsive to antibiotics, MAP-negative group
From the text: Another study was undertaken to compare age-matched MAP-positive and -negative patients utilizing ELISA analysis for serum antibodies to MAP. 10 MAP-positive and 10 MAP-negative patients were compared at 1 year, utilizing the CDAI score as a primary endpoint. The elimination of corticosteroids and the need for immunotherapy were considered secondary endpoints. The MAP-positive patients achieved complete remission in 9 out of the 10 cases, with entry CDAI score of 285 and exit score of 111. Steroids were eliminated in 8 of 10 patients, with 2 patients requiring low-dose steroids. In the MAP-negative group at 1 year, 6 of 10 patients were in complete remission, with an entry CDAI score of 308 and an exit score of 179. Of the responsive patients, 3 of 6 required additional immunotherapy, and 3 remained on antibiotics alone.

[3] = system: Crohn's disease; conditions: cited from earlier work

| Compound | IC99.9 [1] [µg/mL] | Status [1] | induction of remission [2] | benefit of every 8-week administration ([3]; over 550 patients with CD, preliminary trial results) | complications of the immunosuppresive effects ([3]; patients treated for CD and rheumatoid arthritis) |
| --- | --- | --- | --- | --- | --- |
| [H]/N=C(/N)N[C@H]1[C@H](O)[C@@H](O)[C@H](O[C@@H]2O[C@@H](C)[C@](O)(C=O)[C@H]2O[C@@H]2O[C@@H](CO)[C@H](O)[C@@H](O)[C@@H]2NC)[C@@H](N/C(N)=N\[H])[C@@H]1O [ST, streptomycin] | > 3 | R | – | – | – |
| NC(=O)c1cnccn1 [PZA, pyrazinamide] | > 20 | R | – | – | – |
| NC[C@H]1O[C@H](O[C@H]2[C@H](O)[C@@H](O[C@H]3O[C@H](CO)[C@@H](O)[C@H](N)[C@H]3O)[C@H](N)C[C@@H]2N)[C@H](O)[C@@H](O)[C@@H]1O [KM, kanamycin] | < 3 | R | – | – | – |
| CO[C@H]1/C=C/O[C@@]2(C)Oc3c(C)c(O)c4c(O)c(c(/C=N/N5CCN(C)CC5)c(O)c4c3C2=O)NC(=O)/C(C)=C\C=C\[C@H](C)[C@H](O)[C@@H](C)[C@@H](O)[C@@H](C)[C@H](OC(C)=O)[C@@H]1C [RIF, Rifampicin] | > 2.6 | R | – | – | – |
| infliximab: a monoclonal chimeric antibody to tumor necrosis factor α (TNF-α) | – | – | induction of remission in all patients | maintenance of remission and improved quality of life | Documented cases of miliary tuberculosis |
| NNC(=O)c1ccncc1 [INH, isoniazid] | > 20 | R | – | – | – |
| CC[C@@H](CO)NCCN[C@@H](CC)CO [EMB, ethambutol] | < 3 | S | – | – | – |
| CC[C@H]1OC(=O)[C@H](C)[C@@H](O[C@H]2C[C@@](C)(OC)[C@@H](O)[C@H](C)O2)[C@H](C)[C@@H](O[C@@H]2O[C@H](C)C[C@H](N(C)C)[C@H]2O)[C@](C)(OC)C[C@@H](C)C(=O)[C@H](C)[C@@H](O)[C@]1(C)O [CLR, clarithromycin] | < 1.25 | S | – | – | – |
